# Laboratory results taken from US20210116454A1, “METHODS FOR TREATING A HEMATOLOGICAL CANCER AND THE USE OF COMPANION BIOMARKERS FOR 2-(2,6-DIOXOPIPERIDIN-3-YL)-4-((2-FLUORO-4-((3-MORPHOLINOAZETIDIN-1-YL)METHYL)BENZYL)AMINO)ISOINDOLINE-1,3-DIONE” (CELGENE CORPORATION, priority 2019, published 2021).
# Read-outs that look alike come from different tables or passages of the source.
# Assays:
# Assay type in all cases: cell-based
# [1] = test system: DLBCL cell lines; assay: Panel of twenty three DLBCL cell lines, 5-day viable cells and apoptosis
# Method: Compound 1 activity was evaluated in a panel of twenty three DLBCL cell lines. The DLBCL panel includes seven cell lines classified as activated B-cell (ABC) subtype, thirteen cell lines classified as the germinal center B-cell (GCB) subtype, and three cell lines classified as primary mediastinal B-cell lymphoma (PMBL). […] Thus, eleven cell lines have a t(8;14)(q24;q32) and/or t(14;18)(q32;q21.3), corresponding to MYC and BCL2 gene rearrangements into an immunoglobulin (IG) heavy chain locus as well as additional rearrangements affecting BCL6 (Table 1). The translocation of MYC, BCL6, or BCL2 to an IG locus usually leads to high levels of mRNA and protein due to the active transcription driven by a constitutively active IG promoter. Therefore, the protein levels of these genes were monitored by Western blots, confirming the overexpression of BCL2, MYC, and/or BCL6 in all the cell lines evaluated (FIG. 1, panel A). Expressions of CRBN protein and known substrates, Ikaros, Aiolos, and ZFP91 were also evaluated (FIG. 1, panels B and C).
# The panel of cell lines were treated with increasing doses of compounds for five days, at which time the number of viable cells was measured and the amount of apoptosis was determined by 7-AAD exclusion and Annexin V staining using flow cytometry. […] Overall, the sensitivity to Compound 1 was independent of cell of origin (COO), since ABC, GCB, and PMBL subtypes were sensitive to Compound 1 (Table 2).
# [2] = test system: DB; assay: 5-day viable cell number and apoptosis (7-AAD exclusion/Annexin V flow cytometry)
# Source text: (§1) The DLBCL panel includes seven cell lines classified as activated B-cell (ABC) subtype, thirteen cell lines classified as the germinal center B-cell (GCB) subtype, and three cell lines classified as primary mediastinal B-cell lymphoma (PMBL). […] The translocation of MYC, BCL6, or BCL2 to an IG locus usually leads to high levels of mRNA and protein due to the active transcription driven by a constitutively active IG promoter. […] Expressions of CRBN protein and known substrates, Ikaros, Aiolos, and ZFP91 were also evaluated (FIG. 1, panels B and C).
# (§2) The panel of cell lines were treated with increasing doses of compounds for five days, at which time the number of viable cells was measured and the amount of apoptosis was determined by 7-AAD exclusion and Annexin V staining using flow cytometry.
# [3] = test system: U2940; assay: as above
# Source text: as §1, §2
# [4] = test system: SU-DHL-8; assay: as above
# Source text: as §1, §2
# [5] = test system: HT; assay: as above
# Source text: as §1, §2
# [6] = test system: Pfeiffer; assay: as above; conditions: for IC50: Pfeiffer cells (Table 3)
# Source text: as §1, §2
# [7] = test system: Farage; assay: as above
# Source text: as §1, §2
# [8] = test system: OCI-Ly10; assay: as above
# Source text: as §1, §2
# [9] = test system: SU-DHL-16; assay: as above
# Source text: as §1, §2
# [10] = test system: KARPAS-1106P; assay: as above
# Source text: as §1, §2
# [11] = test system: SU-DHL-10; assay: as above
# Source text: as §1, §2
# [12] = test system: WSU-DLCL2; assay: as above
# Source text: as §1, §2
# [13] = test system: SU-DHL-2 cells; assay: Western blot of substrate degradation by each enantiomer, short time-course; conditions: SU-DHL-2, within 2 hours at 1 nM
# Method: Pure samples of each enantiomer were tested for cellular degradation of substrate proteins measured over a short time-course (FIG. 16). SU-DHL-2 cells were treated for 1, 2, and 6 hours with vehicle control (0.1% DMSO), Compound 1 (1, 10, 100 nM), or Compound 2 (1, 10, 100 nM). Western blot analysis was used to evaluate the extent of degradation of the protein substrates Aiolos, Ikaros, and ZFP91. Compound 1 inhibited Aiolos, Ikaros, and ZFP91 in as early as 1 hour of treatment with as little as 1 nM.
# [14] = Homo sapiens, SU-DHL-8 cells (Table 3), read-out: IC50
# [15] = Homo sapiens, HT cells (Table 3), read-out: IC50
# [16] = Farage cells (Table 3), read-out: IC50
# [17] = Homo sapiens, OCI-Ly10 cells (Table 3), read-out: IC50
# [18] = Homo sapiens, SU-DHL-16 cells (Table 3), read-out: IC50
# [19] = Homo sapiens, KARPAS-1106P cells (Table 3), read-out: IC50
# [20] = Homo sapiens, SU-DHL10, SU-DHL-10 cells (Table 3), read-out: IC50
# [21] = Homo sapiens, WSUDLCL2, WSU-DLCL2 cells (Table 3), read-out: IC50
# [22] = Homo sapiens, U-2940, 120 h, U2940 cells, 5 days
# [23] = Homo sapiens, 120 h, SU-DHL-8 cells, 5 days
# [24] = Homo sapiens, 120 h, HT cells, 5 days
# [25] = Homo sapiens, 120 h, Pfeiffer cells, 5 days
# [26] = Homo sapiens, 120 h, OCI-Ly10 cells, 5 days
# [27] = Homo sapiens, 120 h, SU-DHL-16 cells, 5 days
# [28] = Homo sapiens, 120 h, KARPAS-1106P cells, 5 days
# [29] = Homo sapiens, SU-DHL10, 120 h, SU-DHL-10 cells, 5 days
# [30] = Homo sapiens, WSUDLCL2, 120 h, WSU-DLCL2 cells, 5 days
smiles,measurement,setting,value
"COc1cccc2c1C(=O)c1c(O)c3c(c(O)c1C2=O)C[C@@](O)(C(=O)CO)C[C@@H]3O[C@H]1C[C@H](N)[C@H](O)[C@H](C)O1 [Doxorubicin, reference compound]",sensitivity of all DLBCL cell lines,[1]; panel of twenty three cell lines,strongly sensitive
same,IC50,"[2]; Homo sapiens, DB cells (Table 3)",3800 nM
same,IC50,"[3]; Homo sapiens, U-2940, U2940 cells (Table 3), read-out: IC50",2000 nM
same,IC50,[4]; [14],600 nM
same,IC50,[5]; [15],2000 nM
same,IC50,[6]; Homo sapiens,3000 nM
same,IC50,[7]; [16],1200 nM
same,IC50,[8]; [17],3000 nM
same,IC50,[9]; [18],1500 nM
same,IC50,[10]; [19],1700 nM
same,IC50,[11]; [20],600 nM
same,IC50,[12]; [21],1500 nM
"O=C1CC[C@H](N2C(=O)c3cccc(NCc4ccc(CN5CC(N6CCOCC6)C5)cc4F)c3C2=O)C(=O)N1 [Compound 1, (S)-2-(2,6-dioxopiperidin-3-yl)-4-((2-fluoro-4-((3-morpholinoazetidin-1-yl)methyl)benzyl)amino)isoindoline-1,3-dione]",IC50,"[1]; 120 h, eighteen of the twenty three lines, five days of treatment",1 to 400 nM
same,viable cells remaining (Emax),[1]; ten highly sensitive cell lines,less than 6%
same,% Viable Cells AUC,"[2]; DB cells, 5 days",1173
same,% Viable Cells Emax,"[2]; DB cells, 5 days",107.1%
same,% Viable Cells Sensitivity,"[2]; DB cells, 5 days",Limited
same,Apoptosis AUC,"[2]; DB cells, 5 days",0
same,Apoptosis Sensitivity,"[2]; DB cells, 5 days",Limited
same,EC50,[3]; [22],67.9 nM
same,Emax,[3]; [22],29%
same,IC50,"[3]; Homo sapiens, U-2940, 120 h, U2940 cells, 5 days, read-out: % Viable Cells IC50",35 nM
same,% Viable Cells AUC,"[3]; U2940 cells, 5 days",289.1
same,% Viable Cells Emax,"[3]; U2940 cells, 5 days",29.24%
same,% Viable Cells Sensitivity,"[3]; U2940 cells, 5 days",Intermediate (intermediate sensitivity with 15% to 55% cell viability)
same,Apoptosis AUC,"[3]; U2940 cells, 5 days",267.4
same,Apoptosis Sensitivity,"[3]; U2940 cells, 5 days",Intermediate
same,EC50,[4]; [23],509 nM
same,Emax,[4]; [23],70.5%
same,IC50,"[4]; Homo sapiens, 120 h, SU-DHL-8 cells, 5 days, read-out: % Viable Cells IC50",250 nM
same,IC50,[4]; [14],54000 nM
same,% Viable Cells AUC,"[4]; SU-DHL-8 cells, 5 days",54.43
same,% Viable Cells Emax,"[4]; SU-DHL-8 cells, 5 days",2.508%
same,% Viable Cells Sensitivity,"[4]; SU-DHL-8 cells, 5 days",High (highly sensitive to Compound 1 with less than 6% viable cells remaining (Emax) after treatment)
same,Apoptosis AUC,"[4]; SU-DHL-8 cells, 5 days",652.5
same,Apoptosis Sensitivity,"[4]; SU-DHL-8 cells, 5 days",High
same,% Viable Cells AUC,"[5]; HT cells, 5 days",434.8
same,% Viable Cells Emax,"[5]; HT cells, 5 days",45.18%
same,% Viable Cells Sensitivity,"[5]; HT cells, 5 days",Intermediate (intermediate sensitivity with 15% to 55% cell viability)
same,Apoptosis AUC,"[5]; HT cells, 5 days",158.2
same,Apoptosis Sensitivity,"[5]; HT cells, 5 days",Intermediate
same,EC50,[5]; [24],7.82 nM
same,Emax,[5]; [24],16.6%
same,IC50,"[5]; Homo sapiens, 120 h, HT cells, 5 days, read-out: % Viable Cells IC50",470 nM
same,IC50,[5]; [15],435000 nM
same,EC50,[6]; [25],300 nM
same,Emax,[6]; [25],8.01%
same,IC50,[6]; Homo sapiens,855000 nM
same,% Viable Cells AUC,"[6]; Pfeiffer cells, 5 days",912.3
same,% Viable Cells Emax,"[6]; Pfeiffer cells, 5 days",86.19%
same,% Viable Cells Sensitivity,"[6]; Pfeiffer cells, 5 days",Limited
same,Apoptosis AUC,"[6]; Pfeiffer cells, 5 days",133.5
same,Apoptosis Sensitivity,"[6]; Pfeiffer cells, 5 days",Limited
same,EC50,"[7]; 120 h, Farage cells, 5 days",73.6 nM
same,Emax,"[7]; 120 h, Farage cells, 5 days",54.2%
same,IC50,"[7]; 120 h, Farage cells, 5 days, read-out: % Viable Cells IC50",3.7 nM
same,IC50,[7]; [16],59000 nM
same,% Viable Cells AUC,"[7]; Farage cells, 5 days",59.29
same,% Viable Cells Emax,"[7]; Farage cells, 5 days",1.676%
same,% Viable Cells Sensitivity,"[7]; Farage cells, 5 days",High (highly sensitive to Compound 1 with less than 6% viable cells remaining (Emax) after treatment)
same,Apoptosis AUC,"[7]; Farage cells, 5 days",503.6
same,Apoptosis Sensitivity,"[7]; Farage cells, 5 days",High
same,EC50,[8]; [26],2090 nM
same,Emax,[8]; [26],29.4%
same,IC50,"[8]; Homo sapiens, 120 h, OCI-Ly10 cells, 5 days, read-out: % Viable Cells IC50",50 nM
same,IC50,[8]; [17],267000 nM
same,% Viable Cells AUC,"[8]; OCI-Ly10 cells, 5 days",267.3
same,% Viable Cells Emax,"[8]; OCI-Ly10 cells, 5 days",19.19%
same,% Viable Cells Sensitivity,"[8]; OCI-Ly10 cells, 5 days",Intermediate (intermediate sensitivity with 15% to 55% cell viability)
same,Apoptosis AUC,"[8]; OCI-Ly10 cells, 5 days",187.7
same,Apoptosis Sensitivity,"[8]; OCI-Ly10 cells, 5 days",Intermediate
same,EC50,[9]; [27],262 nM
same,Emax,[9]; [27],18.2%
same,IC50,"[9]; Homo sapiens, 120 h, SU-DHL-16 cells, 5 days, read-out: % Viable Cells IC50",120 nM
same,IC50,[9]; [18],360000 nM
same,% Viable Cells AUC,"[9]; SU-DHL-16 cells, 5 days",359.7
same,% Viable Cells Emax,"[9]; SU-DHL-16 cells, 5 days",30.33%
same,% Viable Cells Sensitivity,"[9]; SU-DHL-16 cells, 5 days",Intermediate (intermediate sensitivity with 15% to 55% cell viability)
same,Apoptosis AUC,"[9]; SU-DHL-16 cells, 5 days",159.1
same,Apoptosis Sensitivity,"[9]; SU-DHL-16 cells, 5 days",Intermediate
same,EC50,[10]; [28],56.1 nM
same,Emax,[10]; [28],59.8%
same,IC50,"[10]; Homo sapiens, 120 h, KARPAS-1106P cells, 5 days, read-out: % Viable Cells IC50",25 nM
same,IC50,[10]; [19],111000 nM
same,% Viable Cells AUC,"[10]; KARPAS-1106P cells, 5 days",110.9
same,% Viable Cells Emax,"[10]; KARPAS-1106P cells, 5 days",1.183%
same,% Viable Cells Sensitivity,"[10]; KARPAS-1106P cells, 5 days",High (highly sensitive to Compound 1 with less than 6% viable cells remaining (Emax) after treatment)
same,Apoptosis AUC,"[10]; KARPAS-1106P cells, 5 days",597.7
same,Apoptosis Sensitivity,"[10]; KARPAS-1106P cells, 5 days",High
same,EC50,[11]; [29],16.3 nM
same,Emax,[11]; [29],81.9%
same,IC50,"[11]; Homo sapiens, SU-DHL10, 120 h, SU-DHL-10 cells, 5 days, read-out: % Viable Cells IC50",10 nM
same,IC50,[11]; [20],3400 nM
same,% Viable Cells AUC,"[11]; SU-DHL-10 cells, 5 days",3.371
same,% Viable Cells Emax,"[11]; SU-DHL-10 cells, 5 days",2.477%
same,% Viable Cells Sensitivity,"[11]; SU-DHL-10 cells, 5 days",High (highly sensitive to Compound 1 with less than 6% viable cells remaining (Emax) after treatment)
same,Apoptosis AUC,"[11]; SU-DHL-10 cells, 5 days",815.3
same,Apoptosis Sensitivity,"[11]; SU-DHL-10 cells, 5 days",High
same,EC50,[12]; [30],77 nM
same,Emax,[12]; [30],47.8%
same,IC50,"[12]; Homo sapiens, WSUDLCL2, 120 h, WSU-DLCL2 cells, 5 days, read-out: % Viable Cells IC50",20 nM
same,IC50,[12]; [21],174000 nM
same,% Viable Cells AUC,"[12]; WSU-DLCL2 cells, 5 days",173.8
same,% Viable Cells Emax,"[12]; WSU-DLCL2 cells, 5 days",1.36%
same,% Viable Cells Sensitivity,"[12]; WSU-DLCL2 cells, 5 days",High (highly sensitive to Compound 1 with less than 6% viable cells remaining (Emax) after treatment)
same,Apoptosis AUC,"[12]; WSU-DLCL2 cells, 5 days",464.5
same,Apoptosis Sensitivity,"[12]; WSU-DLCL2 cells, 5 days",High
same,"degradation of each of Aiolos, Ikaros, and ZFP91",[13],More than 50%
